{
  "source": "the supplement of paper PMC10307832",
  "experiment_in_all_cases": "relative viability (nuclei count vs DMSO), 5 days (fraction); higher = more cells survive",
  "key": {"[1]": {"test_system": "A-427", "outline": "(§1)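 Lung cancer cell lines in 1536-well plates got either a single drug or a fixed anchor-drug dose together with five library-drug doses (not always all listed) in √10 steps, by pin tool, on the day after seeding. Nuclei were counted after 5 days, and relative viability is the treated-to-vehicle ratio of nuclei counts. Values are medians of duplicate plates.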"}, "[2]": {"test_system": "COR-L 105", "outline": "as §1"}, "[3]": {"test_system": "EKVX", "outline": "as §1"}, "[4]": {"test_system": "EMC-BAC-2", "outline": "as §1"}, "[5]": {"test_system": "H3255", "outline": "as §1"}, "[6]": {"test_system": "HCC-366", "outline": "as §1"}, "[7]": {"test_system": "LK-2", "outline": "as §1"}, "[8]": {"test_system": "LOU-NH91", "outline": "as §1"}, "[9]": {"test_system": "NCI-H1563", "outline": "as §1"}, "[10]": {"test_system": "NCI-H1666", "outline": "as §1"}, "[11]": {"test_system": "NCI-H1734", "outline": "as §1"}, "[12]": {"test_system": "NCI-H1755", "outline": "as §1"}, "[13]": {"test_system": "NCI-H1975", "outline": "as §1"}, "[14]": {"test_system": "NCI-H2170", "outline": "as §1"}, "[15]": {"test_system": "NCI-H23", "outline": "as §1"}, "[16]": {"test_system": "NCI-H520", "outline": "as §1"}, "[17]": {"test_system": "NCI-H596", "outline": "as §1"}, "[18]": {"test_system": "PC-3 [JPC-3]", "outline": "as §1"}, "[19]": {"test_system": "SK-MES-1", "outline": "as §1"}},
  "data": [
    {"smiles": "Cc1sc2c(c1C)C(c1ccc(Cl)cc1)=N[C@@H](CC(=O)OC(C)(C)C)c1nnc(C)n1-2", "note": "[JQ1] + CS(=O)(=O)CCNCc1ccc(-c2ccc3ncnc(Nc4ccc(OCc5cccc(F)c5)c(Cl)c4)c3c2)o1 [Lapatinib] (partner 2 µM)", "values": [
      {"measurement": "relative viability", "setting": "[1]; first compound 0.04 µM", "result": 0.925},
      {"measurement": "relative viability", "setting": "[1]; first compound 0.1265 µM", "result": 0.916},
      {"measurement": "relative viability", "setting": "[1]; first compound 0.4 µM", "result": 1.08},
      {"measurement": "relative viability", "setting": "[1]; first compound 1.265 µM", "result": 1.02},
      {"measurement": "relative viability", "setting": "[1]; first compound 4 µM", "result": 0.696},
      {"measurement": "relative viability", "setting": "[2]; first compound 0.04 µM", "result": 0.291},
      {"measurement": "relative viability", "setting": "[2]; first compound 0.1265 µM", "result": 0.279},
      {"measurement": "relative viability", "setting": "[2]; first compound 0.4 µM", "result": 0.323},
      {"measurement": "relative viability", "setting": "[2]; first compound 1.265 µM", "result": 0.346},
      {"measurement": "relative viability", "setting": "[2]; first compound 4 µM", "result": 0.361},
      {"measurement": "relative viability", "setting": "[3]; first compound 0.04 µM", "result": 0.256},
      {"measurement": "relative viability", "setting": "[3]; first compound 0.1265 µM", "result": 0.269},
      {"measurement": "relative viability", "setting": "[3]; first compound 0.4 µM", "result": 0.244},
      {"measurement": "relative viability", "setting": "[3]; first compound 1.265 µM", "result": 0.226},
      {"measurement": "relative viability", "setting": "[3]; first compound 4 µM", "result": 0.141},
      {"measurement": "relative viability", "setting": "[4]; first compound 0.04 µM", "result": 0.841},
      {"measurement": "relative viability", "setting": "[4]; first compound 0.1265 µM", "result": 0.905},
      {"measurement": "relative viability", "setting": "[4]; first compound 0.4 µM", "result": 0.949},
      {"measurement": "relative viability", "setting": "[4]; first compound 1.265 µM", "result": 0.551},
      {"measurement": "relative viability", "setting": "[4]; first compound 4 µM", "result": 0.495},
      {"measurement": "relative viability", "setting": "[5]; first compound 0.04 µM", "result": 0.226},
      {"measurement": "relative viability", "setting": "[5]; first compound 0.1265 µM", "result": 0.251},
      {"measurement": "relative viability", "setting": "[5]; first compound 0.4 µM", "result": 0.248},
      {"measurement": "relative viability", "setting": "[5]; first compound 1.265 µM", "result": 0.169},
      {"measurement": "relative viability", "setting": "[5]; first compound 4 µM", "result": 0.227},
      {"measurement": "relative viability", "setting": "[6]; first compound 0.04 µM", "result": 1.02},
      {"measurement": "relative viability", "setting": "[6]; first compound 0.4 µM", "result": 0.877},
      {"measurement": "relative viability", "setting": "[6]; first compound 1.265 µM", "result": 0.461},
      {"measurement": "relative viability", "setting": "[6]; first compound 4 µM", "result": 0.472},
      {"measurement": "relative viability", "setting": "[7]; first compound 0.04 µM", "result": 0.886},
      {"measurement": "relative viability", "setting": "[7]; first compound 0.1265 µM", "result": 0.896},
      {"measurement": "relative viability", "setting": "[7]; first compound 0.4 µM", "result": 0.456},
      {"measurement": "relative viability", "setting": "[7]; first compound 1.265 µM", "result": 0.177},
      {"measurement": "relative viability", "setting": "[7]; first compound 4 µM", "result": 0.286},
      {"measurement": "relative viability", "setting": "[8]; first compound 0.04 µM", "result": 0.787},
      {"measurement": "relative viability", "setting": "[8]; first compound 0.1265 µM", "result": 0.679},
      {"measurement": "relative viability", "setting": "[8]; first compound 0.4 µM", "result": 0.624},
      {"measurement": "relative viability", "setting": "[8]; first compound 1.265 µM", "result": 0.501},
      {"measurement": "relative viability", "setting": "[8]; first compound 4 µM", "result": 0.392},
      {"measurement": "relative viability", "setting": "[9]; first compound 0.04 µM", "result": 0.89},
      {"measurement": "relative viability", "setting": "[9]; first compound 0.1265 µM", "result": 0.72},
      {"measurement": "relative viability", "setting": "[9]; first compound 0.4 µM", "result": 0.662},
      {"measurement": "relative viability", "setting": "[9]; first compound 1.265 µM", "result": 0.717},
      {"measurement": "relative viability", "setting": "[9]; first compound 4 µM", "result": 0.771},
      {"measurement": "relative viability", "setting": "[10]; first compound 0.04 µM", "result": 0.697},
      {"measurement": "relative viability", "setting": "[10]; first compound 0.1265 µM", "result": 0.476},
      {"measurement": "relative viability", "setting": "[10]; first compound 0.4 µM", "result": 0.379},
      {"measurement": "relative viability", "setting": "[10]; first compound 1.265 µM", "result": 0.278},
      {"measurement": "relative viability", "setting": "[10]; first compound 4 µM", "result": 0.288},
      {"measurement": "relative viability", "setting": "[11]; first compound 0.04 µM", "result": 1.08},
      {"measurement": "relative viability", "setting": "[11]; first compound 0.1265 µM", "result": 0.908},
      {"measurement": "relative viability", "setting": "[11]; first compound 0.4 µM", "result": 1.03},
      {"measurement": "relative viability", "setting": "[11]; first compound 1.265 µM", "result": 0.657},
      {"measurement": "relative viability", "setting": "[11]; first compound 4 µM", "result": 1.04},
      {"measurement": "relative viability", "setting": "[12]; first compound 0.04 µM", "result": 1.06},
      {"measurement": "relative viability", "setting": "[12]; first compound 0.1265 µM", "result": 0.735},
      {"measurement": "relative viability", "setting": "[12]; first compound 0.4 µM", "result": 1.05},
      {"measurement": "relative viability", "setting": "[12]; first compound 1.265 µM", "result": 0.853},
      {"measurement": "relative viability", "setting": "[12]; first compound 4 µM", "result": 0.607},
      {"measurement": "relative viability", "setting": "[13]; first compound 0.04 µM", "result": 0.85},
      {"measurement": "relative viability", "setting": "[13]; first compound 0.1265 µM", "result": 0.551},
      {"measurement": "relative viability", "setting": "[13]; first compound 0.4 µM", "result": 0.565},
      {"measurement": "relative viability", "setting": "[13]; first compound 1.265 µM", "result": 0.351},
      {"measurement": "relative viability", "setting": "[13]; first compound 4 µM", "result": 0.333},
      {"measurement": "relative viability", "setting": "[14]; first compound 0.04 µM", "result": 0.258},
      {"measurement": "relative viability", "setting": "[14]; first compound 0.1265 µM", "result": 0.252},
      {"measurement": "relative viability", "setting": "[14]; first compound 0.4 µM", "result": 0.262},
      {"measurement": "relative viability", "setting": "[14]; first compound 1.265 µM", "result": 0.229},
      {"measurement": "relative viability", "setting": "[14]; first compound 4 µM", "result": 0.254},
      {"measurement": "relative viability", "setting": "[15]; first compound 0.04 µM", "result": 0.956},
      {"measurement": "relative viability", "setting": "[15]; first compound 0.1265 µM", "result": 0.943},
      {"measurement": "relative viability", "setting": "[15]; first compound 0.4 µM", "result": 1.09},
      {"measurement": "relative viability", "setting": "[15]; first compound 1.265 µM", "result": 0.301},
      {"measurement": "relative viability", "setting": "[15]; first compound 4 µM", "result": 0.362},
      {"measurement": "relative viability", "setting": "[16]; first compound 0.04 µM", "result": 0.874},
      {"measurement": "relative viability", "setting": "[16]; first compound 0.1265 µM", "result": 0.895},
      {"measurement": "relative viability", "setting": "[16]; first compound 0.4 µM", "result": 0.716},
      {"measurement": "relative viability", "setting": "[16]; first compound 1.265 µM", "result": 0.264},
      {"measurement": "relative viability", "setting": "[16]; first compound 4 µM", "result": 0.243},
      {"measurement": "relative viability", "setting": "[17]; first compound 0.04 µM", "result": 1.07},
      {"measurement": "relative viability", "setting": "[17]; first compound 0.1265 µM", "result": 0.956},
      {"measurement": "relative viability", "setting": "[17]; first compound 0.4 µM", "result": 0.887},
      {"measurement": "relative viability", "setting": "[17]; first compound 1.265 µM", "result": 0.546},
      {"measurement": "relative viability", "setting": "[17]; first compound 4 µM", "result": 0.415},
      {"measurement": "relative viability", "setting": "[18]; first compound 0.04 µM", "result": 0.488},
      {"measurement": "relative viability", "setting": "[18]; first compound 0.1265 µM", "result": 0.529},
      {"measurement": "relative viability", "setting": "[18]; first compound 0.4 µM", "result": 0.432},
      {"measurement": "relative viability", "setting": "[18]; first compound 1.265 µM", "result": 0.412},
      {"measurement": "relative viability", "setting": "[18]; first compound 4 µM", "result": 0.411},
      {"measurement": "relative viability", "setting": "[19]; first compound 0.04 µM", "result": 0.455},
      {"measurement": "relative viability", "setting": "[19]; first compound 0.1265 µM", "result": 0.436},
      {"measurement": "relative viability", "setting": "[19]; first compound 0.4 µM", "result": 0.361},
      {"measurement": "relative viability", "setting": "[19]; first compound 1.265 µM", "result": 0.292},
      {"measurement": "relative viability", "setting": "[19]; first compound 4 µM", "result": 0.274}
    ]}
  ]
}
